Data taken from patent publication EP2351758B1, “METAL COMPLEXES, A METHOD FOR PREPARING SAME, RADIOPHAR[…] BASED THEREON” (Zakrytoe Aktsionernoe Obschestvo "Farm-Sintez", priority 2008, dated 2010).
Read-outs that look alike come from different tables or passages of the source.

Columns and labels:
[1] = 3 hours after administration, cited from earlier work
[2] = Pharmacokinetics (distribution in organs and tissues) in female rats with modeled osseous pathology (femur fracture) after intravenous introduction; format: in vivo; settings: for Blood / Femur, fractured / Femur, normal / Kidneys / Liver / Skeleton / Stomach / Urinary bladder (1, 3 h) / Excretion (5, 24): female rats with modeled osseous pathology, i.v.; for Delayed retention index: ratio of concentration in femur with modeled pathology to healthy femur
Experimental: (§1) The experiments were run on the intact scrub albino rats with modeled osseous pathology. The osseous pathology was imitated by the femur fracture.
(§2) To prepare the composition, 5.0 ml of the sodium pertechnetate ^99mTc from the technetium generator (FSP 42-0225-4528-03, FSP 42-0018-2694-02) were injected into the lyophilizate vial by puncturing the rubber stopper with a syringe needle; then the vial was agitated and cured 20 minutes. The 0.2 ml volume of the composition was injected into the caudal vein. 1, 3, 5, and 24 hours after injection the animals were devitalized by decapitation; then the samples of blood, liver, kidneys, stomach, right and left femurs, urinary bladder with contents were taken. The radionuclide in organs and tissues was determined by the direct radiometry.
The delayed retention index was determined as the ratio of division of the composition concentration in the femoral bone with the modeled osseous pathology and in the healthy femoral bone.
(§3) The statistical treatment used the Student's method.

[3] = Pharmacokinetics (distribution in organs and tissues) in intact female rats after intravenous introduction; format: in vivo; settings: for Blood / Femur / Kidneys / Liver / Skeleton / Stomach / Urinary bladder (1, 3 h) / Excretion (5, 24): intact female rats, i.v.
Experimental: as §1, §2, §3

[4] = intact animals, 3 hours after introduction

Substance: 99Tcm labeled zoledronate (ZL) [known solution (Wang et al)]
- skeletal retention of RM ([1]; known solution (Wang et al)): 34.2%
- retention level in the liver ([1]; prior metal complex (Wang et al)): 13.4 % of the doze injected

Substance: Technetium-99m in form of complex with zoledronic acid [zoledronic acid, 99mTc]
- Blood ([2]; 1 h): 1.7 ± 0.71 % dose/organ
- Femur, fractured ([2]; 1 h): 4.2 ± 1.04 % dose/organ
- Femur, normal ([2]; 1 h): 2.1 ± 0.20 % dose/organ
- Kidneys ([2]; 1 h): 1.8 ± 0.83 % dose/organ
- Liver ([2]; 1 h): 1.7 ± 0.58 % dose/organ
- Skeleton ([2]; 1 h): 57.7 ± 5.54 % dose/organ
- Stomach ([2]; 1 h): 0.4 ± 0.03 % dose/organ
- Urinary bladder (1, 3 h) ([2]; 1 h): 35.1 ± 10.53 % dose/organ
- Blood ([2]; 3 h): 2.0 ± 0.81 % dose/organ
- Femur, fractured ([2]; 3 h): 4.0 ± 1.34 % dose/organ
- Femur, normal ([2]; 3 h): 1.9 ± 0.42 % dose/organ
- Kidneys ([2]; 3 h): 1.4 ± 0.68 % dose/organ
- Liver ([2]; 3 h): 1.1 ± 0.42 % dose/organ
- Skeleton ([2]; 3 h): 46.6 ± 7.81 % dose/organ
- Stomach ([2]; 3 h): 0.2 ± 0.09 % dose/organ
- Urinary bladder (1, 3 h) ([2]; 3 h): 44.8 ± 3.89 % dose/organ
- Blood ([2]; 5 h): 0.5 ± 0.01 % dose/organ
- Excretion (5, 24) ([2]; 5 h): 43.4 ± 5.05 % dose/organ
- Femur, fractured ([2]; 5 h): 3.1 ± 0.70 % dose/organ
- Femur, normal ([2]; 5 h): 1.9 ± 0.20 % dose/organ
- Kidneys ([2]; 5 h): 0.9 ± 0.06 % dose/organ
- Liver ([2]; 5 h): 1.0 ± 0.05 % dose/organ
- Skeleton ([2]; 5 h): 49.9 ± 5.44 % dose/organ
- Stomach ([2]; 5 h): 0.4 ± 0.05 % dose/organ
- Blood ([2]; 24 h): 0.7 ± 0.01 % dose/organ
- Excretion (5, 24) ([2]; 24 h): 52.5 ± 10.86 % dose/organ
- Femur, fractured ([2]; 24 h): 2.5 ± 0.05 % dose/organ
- Femur, normal ([2]; 24 h): 1.4 ± 0.40 % dose/organ
- Kidneys ([2]; 24 h): 0.5 ± 0.08 % dose/organ
- Liver ([2]; 24 h): 0.5 ± 0.09 % dose/organ
- Skeleton ([2]; 24 h): 38.0 ± 11.02 % dose/organ
- Stomach ([2]; 24 h): traces
- Delayed retention index ([2]; 1 h): 2.0
- Delayed retention index ([2]; 3 h): 2.1
- Delayed retention index ([2]; 5 h): 1.7
- Delayed retention index ([2]; 24 h): 1.9
- retention level in the liver ([3]; 3 hours after administration): 1.0 % of the doze injected
- skeletal retention of RM ([3]; 3 hours after the administration): 47.3 % of the dose injected
- activity level in blood ([3]; 5 hours after the study start): trace
- excretion [3, 4]: 30%
- retention in the skeleton [3, 4]: 47%
- injected activity localizes in the skeleton ([3]; intact animals, intravenous injection, in one hour): up to 48 % of the injected activity
- excreted from the organism with the urine ([3]; intact animals, intravenous injection, in one hour, 60 min): 45%
- Blood ([3]; 1 h): 1.7 ± 0.27 % dose/organ
- Femur ([3]; 1 h): 1.8 ± 0.16 % dose/organ
- Kidneys ([3]; 1 h): 1.3 ± 0.17 % dose/organ
- Liver ([3]; 1 h): 0.8 ± 0.12 % dose/organ
- Skeleton ([3]; 1 h): 48.1 ± 4.36 % dose/organ
- Stomach ([3]; 1 h): 0.1 ± 0.03 % dose/organ
- Urinary bladder (1, 3 h) ([3]; 1 h): 45.4 ± 4.03 % dose/organ
- Blood ([3]; 3 h): 0.9 ± 0.38 % dose/organ
- Femur ([3]; 3 h): 1.9 ± 0.35 % dose/organ
- Kidneys ([3]; 3 h): 0.9 ± 0.21 % dose/organ
- Liver ([3]; 3 h): 1.0 ± 0.27 % dose/organ
- Skeleton ([3]; 3 h): 47.3 ± 2.89 % dose/organ
- Stomach ([3]; 3 h): 0.1 ± 0.01 % dose/organ
- Urinary bladder (1, 3 h) ([3]; 3 h): 30.1 ± 4.41 % dose/organ
- Blood ([3]; 5 h): 0.4 ± 0.03 % dose/organ
- Excretion (5, 24) ([3]; 5 h): 52.4 ± 2.80 % dose/organ
- Femur ([3]; 5 h): 1.6 ± 0.11 % dose/organ
- Kidneys ([3]; 5 h): 1.2 ± 0.13 % dose/organ
- Liver ([3]; 5 h): 0.6 ± 0.11 % dose/organ
- Skeleton ([3]; 5 h): 42.9 ± 2.93 % dose/organ
- Stomach ([3]; 5 h): 0.1 ± 0.04 % dose/organ
- Blood ([3]; 24 h): traces
- Excretion (5, 24) ([3]; 24 h): 39.1 ± 5.00 % dose/organ
- Femur ([3]; 24 h): 1.8 ± 0.06 % dose/organ
- Kidneys ([3]; 24 h): 0.6 ± 0.32 % dose/organ
- Liver ([3]; 24 h): 0.2 ± 0.13 % dose/organ
- Skeleton ([3]; 24 h): 49.6 ± 1.77 % dose/organ
- Stomach ([3]; 24 h): 0.3 ± 0.05 % dose/organ
